Active and inactive are the calls of the source. The rule behind the calls is not given here.
Experiments:
[1] = molecular target: T1, Activin receptor type-1B (Homo sapiens, UniProt P36896); assay: Inhibition of ALK4
T1 sequence (P36896 whole entry): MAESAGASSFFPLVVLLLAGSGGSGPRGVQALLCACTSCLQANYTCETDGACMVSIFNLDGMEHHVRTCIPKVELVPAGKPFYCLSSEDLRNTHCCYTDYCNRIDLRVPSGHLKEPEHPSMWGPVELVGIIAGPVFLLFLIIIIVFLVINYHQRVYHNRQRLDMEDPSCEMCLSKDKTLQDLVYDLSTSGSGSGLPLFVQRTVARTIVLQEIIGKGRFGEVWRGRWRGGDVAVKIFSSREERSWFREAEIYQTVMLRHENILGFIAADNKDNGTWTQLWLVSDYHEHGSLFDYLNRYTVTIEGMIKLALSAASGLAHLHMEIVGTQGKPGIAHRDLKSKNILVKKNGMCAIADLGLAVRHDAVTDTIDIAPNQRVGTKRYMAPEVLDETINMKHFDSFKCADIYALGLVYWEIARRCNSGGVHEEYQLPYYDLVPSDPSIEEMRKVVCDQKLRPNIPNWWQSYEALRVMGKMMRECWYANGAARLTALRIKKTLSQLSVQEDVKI

[2] = system: Fibroblast; assay: Inhibition of in TGFbeta-induced CTGF gene expression in human fibroblasts; format: functional, cell-based
[3] = system: Rattus norvegicus; assay: Inhibition of dermal injury-induced CTGF gene expression in rat wound repair model treated topically after 7 days; format: functional, organism-based
[4] = system: Rattus norvegicus; assay: Inhibition of dermal injury-induced TGFbeta-1 gene expression in rat wound repair model treated topically after 7 days; format: functional, organism-based
[5] = system: Fibroblast; assay: Inhibition of in TGFbeta-induced PAI1 gene expression in human fibroblasts; format: functional, cell-based
[6] = system: Rattus norvegicus; assay: Inhibition of dermal injury-induced FN1 gene expression in rat wound repair model treated topically after 7 days; format: functional, organism-based
[7] = system: Fibroblast; assay: Inhibition of in TGFbeta-induced FN1 gene expression in human fibroblasts; format: functional, cell-based
[8] = system: Rattus norvegicus; assay: Inhibition of dermal injury-induced new collagen synthesis in rat wound repair model at 1% treated topically after 7 days; format: functional
[9] = system: Fibroblast; assay: Inhibition of in TGFbeta-induced SMAD2/3 phosphorylation in human fibroblasts; format: functional, cell-based
[10] = system: Rattus norvegicus; assay: Inhibition of dermal injury-induced FSP1 gene expression in rat wound repair model treated topically after 7 days; format: functional, organism-based
[11] = molecular target: T2, TGF-beta receptor type-1 (Homo sapiens, UniProt P36897); assay: Inhibition of ALK5
T2 sequence (P36897 whole entry): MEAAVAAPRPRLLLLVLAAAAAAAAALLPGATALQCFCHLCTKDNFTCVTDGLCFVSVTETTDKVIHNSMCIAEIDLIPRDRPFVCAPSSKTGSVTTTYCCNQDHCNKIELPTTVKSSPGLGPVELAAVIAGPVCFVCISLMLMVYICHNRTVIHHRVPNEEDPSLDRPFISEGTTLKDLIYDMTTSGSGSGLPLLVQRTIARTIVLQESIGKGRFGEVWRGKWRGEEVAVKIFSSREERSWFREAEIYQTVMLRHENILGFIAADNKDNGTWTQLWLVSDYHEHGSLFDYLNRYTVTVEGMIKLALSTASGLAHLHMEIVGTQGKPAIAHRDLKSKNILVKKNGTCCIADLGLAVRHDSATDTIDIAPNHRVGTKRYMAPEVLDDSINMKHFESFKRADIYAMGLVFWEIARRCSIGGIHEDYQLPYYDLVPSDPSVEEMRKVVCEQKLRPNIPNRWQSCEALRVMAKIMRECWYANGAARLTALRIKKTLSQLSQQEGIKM

[12] = molecular target: Activin receptor type-1-like (Homo sapiens, UniProt P37023); assay: Inhibition of ALK1
[13] = Photostability of the compound assessed as compound remaining after exposure to sunlight; format: physicochemical
[14] = system: Fibroblast; assay: Inhibition of in TGFbeta-induced FSP1 gene expression in human fibroblasts; format: functional, cell-based
[15] = molecular target: T3, TGF-beta receptor type-1 (Mus musculus, UniProt Q64729); assay: Inhibition of ALK5 in mouse NIH/3T3 cells by smad binding element reporter based assay; format: cell-based
T3 sequence (Q64729 whole entry): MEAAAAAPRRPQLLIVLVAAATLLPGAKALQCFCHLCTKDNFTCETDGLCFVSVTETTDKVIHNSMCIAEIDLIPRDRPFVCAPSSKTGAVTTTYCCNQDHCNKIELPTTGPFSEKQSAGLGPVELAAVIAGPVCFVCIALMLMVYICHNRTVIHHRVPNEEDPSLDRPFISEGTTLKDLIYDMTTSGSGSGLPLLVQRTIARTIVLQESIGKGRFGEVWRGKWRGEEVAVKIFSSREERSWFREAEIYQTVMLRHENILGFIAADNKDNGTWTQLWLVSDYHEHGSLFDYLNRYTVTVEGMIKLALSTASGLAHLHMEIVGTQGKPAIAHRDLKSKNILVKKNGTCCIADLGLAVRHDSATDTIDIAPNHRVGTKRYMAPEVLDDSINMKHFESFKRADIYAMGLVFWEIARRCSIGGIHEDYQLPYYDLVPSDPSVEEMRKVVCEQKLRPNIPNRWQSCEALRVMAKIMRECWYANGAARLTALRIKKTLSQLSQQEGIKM

[16] = system: Fibroblast; assay: Inhibition of in TGFbeta-induced COL1A gene expression in human fibroblasts; format: functional, cell-based
[17] = system: Fibroblast; assay: Inhibition of in TGFbeta-induced alpha-SMA gene expression in human fibroblasts; format: functional, cell-based
[18] = system: Rattus norvegicus; assay: Inhibition of dermal injury-induced PAI1 gene expression in rat wound repair model treated topically after 7 days; format: functional, organism-based
[19] = system: Rattus norvegicus; assay: Inhibition of dermal injury-induced CLO1A gene expression in rat wound repair model treated topically after 7 days; format: functional, organism-based
[20] = system: Rattus norvegicus; assay: Inhibition of wound healing in rat wound repair model treated topically by measuring wound closure after 7 days; format: functional, organism-based
[21] = system: Fibroblast; assay: Inhibition of in TGFbeta-induced TGFbeta1 gene expression in human fibroblasts; format: functional, cell-based
[22] = system: Rattus norvegicus; assay: Inhibition of dermal injury-induced alpha-SMA gene expression in rat wound repair model treated topically after 7 days; format: functional, organism-based
[23] = Photostability of the compound assessed as compound degradation after exposure to sunlight; format: physicochemical; conditions: read-out: Drug degradation

Activin receptor type-1-like, sequence (P37023 whole entry): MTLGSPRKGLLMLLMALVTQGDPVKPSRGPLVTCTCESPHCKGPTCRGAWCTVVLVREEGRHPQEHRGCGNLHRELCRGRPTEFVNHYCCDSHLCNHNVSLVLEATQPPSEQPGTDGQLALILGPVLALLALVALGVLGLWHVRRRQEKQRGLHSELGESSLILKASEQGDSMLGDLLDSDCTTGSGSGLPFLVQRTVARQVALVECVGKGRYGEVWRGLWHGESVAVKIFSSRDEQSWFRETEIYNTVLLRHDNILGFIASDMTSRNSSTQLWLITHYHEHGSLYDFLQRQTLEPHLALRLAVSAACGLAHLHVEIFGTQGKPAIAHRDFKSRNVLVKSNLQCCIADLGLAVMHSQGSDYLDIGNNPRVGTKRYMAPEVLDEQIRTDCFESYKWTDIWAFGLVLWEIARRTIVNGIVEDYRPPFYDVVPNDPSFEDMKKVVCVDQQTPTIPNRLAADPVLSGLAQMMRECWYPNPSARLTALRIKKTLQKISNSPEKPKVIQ

SMILES | IC50 [11] | Stability [13] | IC50 [15] | also measured
Cc1cccc(-n2nccc2-c2ccc3ncn(C)c(=O)c3c2)n1 | 13 nM | 99.4% | 211 nM | IC50 [1]: 59 nM; inhibition [2]: Dose-dependent effect; inhibition [3]: Dose-dependent effect; inhibition [4]: Dose-dependent effect; inhibition [5]: Dose-dependent effect; inhibition [6]: Dose-dependent effect; inhibition [7]: Dose-dependent effect; inhibition (INH) [8]: 26%; inhibition [9]: Dose-dependent effect; inhibition [10]: Dose-dependent effect; IC50 [12]: > 5 µM; inhibition [14]: Dose-dependent effect; inhibition [16]: Dose-dependent effect; inhibition [17]: Dose-dependent effect; inhibition [18]: Dose-dependent effect; inhibition [19]: Dose-dependent effect; inhibition [20]: inactive; inhibition [21]: Dose-dependent effect; inhibition [22]: Dose-dependent effect
Cc1cccc(-n2nc3c(c2-c2ccc4nc[nH]c(=O)c4c2)CCC3)n1 | 5 nM | 100% | 46 nM | 
C=Cn1cnc2ccc(-c3ccnn3-c3cccc(C)n3)cc2c1=O | 4 nM | 100% | 44 nM | 
Cc1cccc(-n2ncc(C)c2-c2ccc3nc[nH]c(=O)c3c2)n1 | 1 nM |  | 61 nM | 
CCn1cnc2ccc(-c3ccnn3-c3cccc(C)n3)cc2c1=O | 69 nM | 100% | 708 nM | 
CCc1cnn(-c2cccc(C)n2)c1-c1ccc2nc[nH]c(=O)c2c1 | 2 nM |  | 47 nM | 

Second part, led by results:

IC50 [11] | Stability [13] | IC50 [15] | SMILES | also measured
 | 32% |  | Cc1cccc(-c2n[nH]cc2-c2ccc3ncn(C)c(=O)c3c2)n1 | degraded [23]: 68%
6 nM |  | 73 nM | Cc1cccc(-n2nccc2-c2ccc3nc[nH]c(=O)c3c2)n1 | 
1 nM |  | 274 nM | CCc1cc(-c2ccc3ncn(C)c(=O)c3c2)n(-c2cccc(C)n2)n1 | 
3 nM |  | 695 nM | Cc1cccc(-n2nc(C)cc2-c2ccc3ncn(C)c(=O)c3c2)n1 | 
4 nM | 99% | 135 nM | Cc1cccc(-n2ncc(C)c2-c2ccc3ncn(C)c(=O)c3c2)n1 | 

Source: ChEMBL document CHEMBL2021874, “Discovery of a series of 2-(1H-pyrazol-1-yl)pyridines as ALK5 inhibitors with potential utility in the prevention of dermal scarring” (Bioorg Med Chem Lett, 2012)
